The results in this text go back to patent publication US11351168B1 (Celgene CAR LLC, priority 2008, dated 2022).

A value given as a limit tells only on which side of the number the result lay.

This assay has as its system BTK signaling in Ramos cells. Kind of assay: BTK Ramos cellular assay (phosphorylation of BTK substrate PLCγ2). Type of assay: cell-based, human. Particulars: Homo sapiens, 1 hour compound, anti-IgM stimulation, read-out: BTK Inhibition (Ramos cellular). The procedure: Compounds I-2, I-4, and I-7 were assayed in Ramos human Burkitt lymphoma cells. Ramos cells were grown in suspension in T225 flasks, spun down, resuspended in 50 ml serum-free media and incubated for 1 hour. Compound was added to Ramos cells in serum free media to a final concentration of 1, 0.1, 0.01, or 0.001 μM. Ramos cells were incubated with compound for 1 hour, washed again and resuspended in 100 ul serum-free media. Cells were then stimulated with 1 μg of goat F(ab′)2 Anti-Human IgM and incubated on ice for 10 minutes to activate B cell receptor signaling pathways. After 10 minutes, the cells were washed once with PBS and then lysed on ice with Invitrogen Cell Extraction buffer. 16 μg total protein from lysates were loaded on gel and blots were probed for phosphorylation of the BTK substrate PLCγ2.

As to `C=C(C)C(=O)c1ccc(Nc2nc(Nc3ccccc3)ncc2F)cc1` [Compound I-185, 1-(4-(5-fluoro-2-(phenylamino)pyrimidin-4-ylamino)phenyl)-2-methylprop-2-en-1-one], the IC50 lay in the range of 100 to 1000 nM.
As for `C=CC(=O)Nc1cccc(Oc2nc(Nc3ccc(OC)nc3)ncc2C)c1` [Compound I-186, N-(3-(2-(6-methoxypyridin-3-ylamino)-5-methylpyrimidin-4-yloxy)phenyl)acrylamide], the figure is below 10 nM.
As for `C=CC(=O)Nc1cccc(Oc2nc(Nc3ccc(OC)nc3)ncc2C(C)=O)c1` [Compound I-188, N-{3-[5-Acetyl-2-(6-methoxy-pyridin-3-ylamino)-pyrimidin-4-yloxy]-phenyl}-acrylamide], the figure is below 10 nM.
As for `C=CC(=O)Nc1cccc(Nc2nc(Nc3ccc(OC)nc3)ncc2C(C)=O)c1` [Compound I-189, N-{3-[5-Acetyl-2-(6-methoxy-pyridin-3-ylamino)-pyrimidin-4-ylamino]-phenyl}-acrylamide], the figure is 10 to 100 nM.
Take `C=CC(=O)N1CCC[C@@H](Oc2nc(Nc3cccc(OC)c3)ncc2F)C1` [Compound I-190, (R)-1-(3-(5-fluoro-2-(3-methoxyphenylamino)pyrimidin-4-yloxy)piperidin-1-yl)prop-2-en-1-one]: the IC50 was 10 to 100 nM.
As for `C=CC(=O)Nc1cccc(Nc2nc(Nc3ccc(OC)nc3)ncc2OC)c1` [Compound I-192, N-(3-(5-methoxy-2-(6-methoxypyridin-3-ylamino)pyrimidin-4-ylamino)phenyl)acrylamide], the figure is 10 to 100 nM.
As for `C=CC(=O)N1CCOc2ccc(Nc3nc(Nc4ccc(OC)nc4)ncc3F)cc21` [Compound I-194, 1-(6-(5-fluoro-2-(6-methoxypyridin-3-ylamino)pyrimidin-4-ylamino)-2H-benzo[b][1,4]oxazin-4(3H)-yl)prop-2-en-1-one], the figure is below 10 nM; as for `C=CC(=O)Nc1cccc(Nc2nc(Nc3ccc(OCCCNC(=O)OC(C)(C)C)cc3)ncc2F)c1` [Compound I-198, tert-butyl 3-(4-(4-(3-acrylamidophenylamino)-5-fluoropyrimidin-2-ylamino)phenoxy)propylcarbamate], below 10 nM; as for `C=CC(=O)N1CCC(Nc2nc(Nc3cccc(OC)c3)ncc2F)C1` (stereo not drawn) [Compound I-201, 1-(3-(5-fluoro-2-(3-methoxyphenylamino)pyrimidin-4-ylamino)pyrrolidin-1-yl)prop-2-en-1-one], 100 to 1000 nM.
For the compound `C=CC(=O)N1CCC[C@@H](Nc2nc(Nc3ccc(OC)nc3)ncc2F)C1` [Compound I-202, (R)-1-(3-(5-fluoro-2-(6-methoxypyridin-3-ylamino)pyrimidin-4-ylamino)piperidin-1-yl)prop-2-en-1-one], the IC50 was 100 to 1000 nM.
As for `C=CC(=O)Nc1cccc(Nc2nc(Nc3cccc(OCCCn4ccnc4)c3)ncc2F)c1` [Compound I-204, N-(3-(2-(3-(3-(1H-imidazol-1-yl)propoxy)phenylamino)-5-fluoropyrimidin-4-ylamino)phenyl)acrylamide], the figure is below 10 nM; as for `C=CC(=O)Nc1cccc(Nc2nc(Nc3cccc(OCCCN4CCOCC4)c3)ncc2F)c1` [Compound I-208, N-(3-(5-fluoro-2-(3-(3-morpholinopropoxy)phenylamino)pyrimidin-4-ylamino)phenyl)acrylamide], 10 to 100 nM; as for `C=CC(=O)Nc1cccc(Nc2nc(Nc3ccc(OC)nc3)ncc2C(N)=O)c1` [Compound I-209, 4-(3-acrylamidophenylamino)-2-(6-methoxypyridin-3-ylamino)pyrimidine-5-carboxamide], 10 to 100 nM.
As for `C=CC(=O)Nc1cccc(Nc2nc(Nc3cccc(OC)c3)ncc2C(N)=O)c1` [Compound I-210, 4-(3-acrylamidophenylamino)-2-(3-methoxyphenylamino)pyrimidine-5-carboxamide], the figure is below 10 nM.
As for `C=CC(=O)Nc1cccc(Oc2nc(Nc3ccc(OC)nc3)ncc2F)c1` [Compound I-217], the figure is below 10 nM.
